What all share (format): in vivo, human
Series [1] relates to patient suffering from rheumatoid arthritis. Nature of the series: Case reports: patients suffering from rheumatoid arthritis. The following applies: Example 17; before Topamax. The method, then:
A patient suffering from rheumatoid arthritis was administered 25 mg per day of topiramate with an increase every 10 days by 25 mg until 25 mg, 3 times per day, was achieved. The patient previously took 3 or 4 tablets per day of lortab, seven 2.5 mg tablets of methotrexate once a week, 200 mg per day of minocycline and 10 mg per day of prednisone.
An adolescent patient suffering from rheumatoid arthritis began taking 15 mg per day of topiramate for one week, which was then increased by 15 mg weekly until 45 mg per day, in three divided dosages of 15 mg each, was reached. The patient previously took 3 to 5 mg of prednisone daily.
A patient suffering from rheumatoid arthritis with a positive rheumatic factor about 3 decades earlier, at which time they also experienced polyarthritis and Renaud's phenomena, was treated with prednisone 40 mg per day for six months and was then weaned off the prednisone after one year. In the ensuing years, psoriasis developed on both elbows which was worse in the winter. They were an avid golfer and experienced painful swelling and stiffness of both wrists and hands, especially the left, and back pain and stiffness. […] They were begun on Topamax 15 mg a day which was increased weekly by 15 mg until 45 mg per day was taken in divided doses.

Series [2] relates to patient with rapid mood swings and severe intense itching. Nature of the series: Case report: patient with rapid mood swings and severe intense itching. As to conditions: Example 19. The method, then: A patient presented with rapid mood swings and a complaint of severe intense itching from clothing tags and some clothing, which began over twenty years ago. They were begun on gabapenten which was increased to 300 mg qid. […] Their itching was unchanged. They were begun on Topamax 12.5 mg at bedtime which was increased weekly by 12.5 mg until 50 mg.

For series [3], the system named is patient suffering from multiple sclerosis. Nature of the series: Case reports: patients suffering from multiple sclerosis treated with topiramate. As to conditions: Example 18; patient's own attempt. The method, then:
A patient suffering from multiple sclerosis was administered 15 mg per day of topiramate. The dosage was increased after 15 days to 30 mg per day. At 15 mg, the patient's involuntary stretch rigid response stopped and the patient was able to get out of bed without falling backward when their feet touched the floor for the first time in nine years.
The patient previously took trazadone 100 mg at bedtime, clonazepan 1 mg three times a day, citalapram 40 mg each morning, gabapentrin 600 mg four times a day, and synthroid 25 mcg per day for two years. They had refused steroids and interferon because of side effects.
The Topamax was increased to 15 mg at bedtime and they reported “no bad bladder accidents” and that their leg and foot cramps had disappeared. […] They were discharged on Topamax 15 mg at bedtime along with previous medications. The patient was much improved medically and emotionally.
The patient returned four weeks later walking with a cane, having worked “10 to 14 hours per day and exhausted from my move with little sleep during the past month”. They reported “insatiable itching all over my body wherever my clothes touch the skin” which […] unsuccessfully tried to treat with cetirizine. […] said […] felt “dizzy, weak, Charlie horses in arches of feet and toes, unable to stand for more than 10 minutes before starting to have gait problems, problems sleeping, having trouble mentally and urine leaking”. […] working diagnoses are Axis I Bipolar disorder, not otherwise specified Axis III multiple sclerosis. […]

As for `COc1ccc2cc([C@H](C)C(=O)O)ccc2c1` [Naproxen], the “effect on painful swelling and stiffness” value in series [1] is “ineffective”.

For the compound `NCC1(CC(=O)O)CCCCC1` [gabapenten], the mood result in series [2] (300 mg qid) is “a little calmer”. Moreover, in series [2] (300 mg qid, in two weeks), the weight gained entry is given as “five”. The itching entry in series [2] (increased to 300 mg qid) is on record as “unchanged”.

For `O=C(O)COCCN1CCN(C(c2ccccc2)c2ccc(Cl)cc2)CC1` (centres unmarked) [cetirizine], in series [3], the treatment of itching result was “unsuccessfully”.

The values are drawn from patent US20030144347A1, “Method for treating autoimmune disease” (priority 2001, published 2003).
